These results are taken from patent US8168596B2, “Use of cycloartane compounds for treating arthritis” (NuLiv Holding Inc., priority 2008, dated 2012).

In test [1] the test system is MMP-1. The test can be described thus: Western blot of MMP-1 in PMA- or IL-1β-pre-treated SW1353 cells (Example 6). The test is classed as cell-based, human. The conditions noted are these: 48 h. On the procedure: (§1) The cells were then plated on 6-cm dishes at a density of 1×10^6 cells/dish for 24 hours prior to any treatment. At the beginning of the experiment, the cells were pre-treated with 100 ng/mL PMA or 10 ng/mL IL-1β for 24 hours. The cells were then treated 0.1 μM Dexamethasone with, various astragaloside compounds (0.1 μM) or extracts of Astragalus membranaceous (1 μg/mL) at indicated dosages for another 48 hours. For control sample, 0.1% DMSO was used as a negative control for these experiments. The conditioned culture mediums were then centrifuged, 2-fold concentrated and collected for assay of collagens or MMPs secreted into the culture medium.
(§2) Western blotting analysis was carried out on both cultured medium and cell lysates, as follows. The cells were washed and lysed in 0.2 mL of lysis buffer (1% NP-40, 50 mM Tris-HCl, pH 7.4, 180 mM NaCl, 1 mM EDTA, 1 mM PMSF, 1 mM NaF, 10 mM Na3VO4) for 30 min at 4° C. After centrifuging at 17500 g for 15 min, the supernatants of cell lysate were also collected. Protein concentration of the samples were measured using the bicinchoninic acid (BCA) protein assay kit according to the manufacturer's protocol (Pierce, Rockford, Ill., USA). Equal amount of protein samples of concentrated conditioned medium (100 μg) or cell lysate supernatants (50 μg) were mixed with an appropriate volume of 4×SDS sampling buffer and separated by 8% SDS-PAGE gel. The protein bands separated in the SDS-PAGE gel were blotted onto a polyvinylidene fluoride (PVDF) membrane. The blotted PVDF membrane was washed twice and blocked in freshly prepared Tris-buffered saline (TBS) containing 0.1% Tween-20 and 7% skim milk (TBST) for 2 hours at room temperature. The PVDF membrane was then incubated with either antibodies against collagen I and III or the housekeeping protein α-tubulin (Santa Cruz Biotechnology, Santa Cruz, Calif.) for 18 hours at 4° C. Horseradish peroxidase-conjugated anti-goat antibody was used as secondary antibody. Signals were visualized by an enhanced chemiluminescence kit (Clonetech, Palo Alto, Calif., USA) followed by exposure to X-ray films.
(In western blotting, separated proteins are transferred to a membrane and probed.)

The subject of test [2] is MMP-13. The test can be described thus: Western blot of MMP-13 in PMA- or IL-1β-pre-treated SW1353 cells (Example 6). The test is classed as cell-based, human. Particulars: 0.1 μM, 48 h. On the procedure:
as §1
as §2, with “The PVDF membrane was then incubated with either antibodies against collagen I and III or the housekeeping protein α-tubulin (Santa Cruz Biotechnology, Santa Cruz, Calif.) for 18 hours at 4° C.” left out

In test [3] the test system is MMP-1. The test can be described thus: Zymography of MMP-1 from pre-treated SW1353 cells. The conditions noted are these: 0.1 μM, 24 h. The test is classed as cell-based, human. On the procedure: (§3) At the beginning of the experiment, the cells were pre-treated with 100 ng/mL PMA or 10 ng/mL IL-1β for 24 hours. The cells were then treated with 0.1 μM Dexamethasone, various astragaloside compounds (0.1 μM) or extracts of Astragalus membranaceous (1 μg/mL) at indicated dosages for another 24 hours. For control sample, 0.1% DMSO was used as a negative control for these experiments. The conditioned culture mediums were then centrifuged, 2-fold concentrated and collected for assay of collagens or MMPs secreted into the culture medium.
(§4) The proteolytic activities of MMPs from SW1353 cells were measured essentially as described previously (Circ Res, 1999; 85:906-911). The cells were lysed in lysis buffer (1% Triton X-100, 50 mM Tris-Cl, pH 7.4, 180 mM NaCl, 1 mM EDTA). The samples were measured for their protein concentration using the bicinchoninic acid (BCA) protein assay kit as described. Samples of concentrated conditioned medium and cell lysates were mixed with non-reducing electrophoresis loading buffer and subjected to electrophoresis under non-reducing conditions. The electrophoresis was carried out on a 10% SDS-PAGE co-polymerized with 2 mg/mL gelatin or casein (Sigma, St. Louis, Mo. USA). For zymographic analysis of pro-MMP-2 and activated MMP-2, the total 20 μg of culture medium were used for electrophoresis. Following electrophoresis, renaturation of the proteins was achieved by incubating the gels twice in 25 g/L Triton X-100 at room temperature for 10 min. Subsequently the gels were incubated in 50 mM Tris-HCl, pH 7.5 containing 0.2 M NaCl, 0.02% Brij35 and 10 mM CaCl2 at 37° C. for 18 hours. After the gels were stained with Coomassie Brilliant Blue R-250 and destained, zones of proteolytic activities became visible as transparent bands in the stained gel. In order to obtain higher sensitivity, the gels were further destained in a solution of 1% Triton X-100 (1 to 2 hours). This procedure increased the signal-to-noise ratio, allowing the visualization of faint gelatinase bands at 92 kDa, 125 kDa and greater than 200 kDa. Zymograms were read using a Molecular Dynamics (Sunnyvale, Calif., USA) computing laser densitometer with Image Quant software.

For test [4], the system named is MMP-2. The test can be described thus: Zymography of MMP-2 from pre-treated SW1353 cells. The test is classed as cell-based, human. Particulars: 24 h. Here is the method: as §3, §4
For test [5], the system named is MMP-9. The test can be described thus: Zymography of MMP-9 from pre-treated SW1353 cells. The test is classed as cell-based, human. The conditions noted are these: 24 h. On the procedure: as §3, §4
Test [6] concerns MMP-13. The test can be described thus: Western blot of MMP-13 in pre-treated human chondrocytes (HCHs). The test is classed as cell-based. The conditions noted are these: 48 h.
Test [7] relates to Type II Collagen. The test can be described thus: Western blot of Type II Collagen in pre-treated human chondrocytes (HCHs). The test is classed as cell-based. The conditions noted are these: 48 h.
The test system of test [8] is MMP-1. The test is described as follows: Western blot of MMP-1 in pre-treated human chondrocytes (HCHs). The test is classed as cell-based. The conditions noted are these: 48 h.
Test [9] deals with HCH cells. The test is described as follows: Proline uptake assay. The test is classed as cell-based, human. Particulars: astragalosides 0.1 μM, 24 h, Ctrl 1.00. Here is the method: The proline uptake assay was carried out as described below, generally in accordance with the method disclosed in Biochim Biophys Acta. 1104:283-292, 1992, the contents of which are incorporated by reference. Briefly, HCH cells were seeded into a 24-well plate at a density of 3×10^4 cells per well and cultured for 24 hours. The cells were then treated in the absence (solvent control) or presence of the astragalosides (0.1 μM) or Astragalus membranaceous extracts (1.0 μg/mL) for another 24 hours. The treated cells were then washed once with PBS and incubated in amino acid free medium (AAFM) for another 30 min. The treated cells were then replaced with fresh AAFM containing 50 μg/mL of ascorbate and total of 0.5 mM of L-proline containing 1 μCi [^3H] Proline (American Radiolabelled Chemicals Inc, ARC, St. Louis, Mo., USA). At designated time intervals, the cells were washed with AAFM containing cold proline and then lysed in 200 μL of 2% SDS. Cell lysates were centrifuged at 15000 g for 15 min. Intracellular proline uptaken by the cells was determined by transferring 10 μL of the cell lysate to filter-bottomed UniFilter plates (Perkim-Elmer) and counting. The samples were measured for their protein concentrations using the BCA protein assay kit as described above. The amount of proline accumulated in the cells was calculated and normalized to protein concentration. And cellular uptake rate was expressed as nmole of L-proline per minute per […] of cell protein (nmole/min/μg).

[10] abbreviates: IL-1β-pre-treated SW1353 cell extract, compounds 0.1 μM.
[11] abbreviates: PMA-pre-treated SW1353 cell extract, 0.1 μM.
[12] abbreviates: IL-1β-pre-treated SW1353 cell extract.
The mark [13] stands for this setting: IL-1β-pre-treated SW1353 culture medium.
Where [14] appears, read: IL-1β-pre-treated SW1353, compounds 0.1 μM.
Setting [15] is: IL-1β-pre-treated SW1353 culture medium, 0.1 μM.
Where [16] appears, read: IL-1β-pre-treated HCH culture medium, compounds 0.1 μM.
The mark [17] stands for this setting: PMA-pre-treated SW1353 culture medium, 0.1 μM.
Where [18] appears, read: PMA-pre-treated SW1353 culture medium.
[19] abbreviates: PMA-pre-treated HCH culture medium, 0.1 μM.

Turning to `CC(=O)O[C@H]1[C@H](O[C@H]2CC[C@]34C[C@]35CC[C@]3(C)[C@@H]([C@@]6(C)CC[C@@H](C(C)(C)O)O6)[C@@H](O)C[C@@]3(C)[C@@H]5C[C@H](O[C@@H]3O[C@H](CO)[C@@H](O)[C@H](O)[C@H]3O)[C@H]4C2(C)C)OC[C@@H](O)[C@@H]1O` [AS2, Astragaloside II], the “MMP-1, Western blot, relative to Ctrl 1.00” value was 0.86 in test [1] (setting [10]) and 0.71 in test [1] (setting [11]). Also, the “MMP-13, Western blot, relative to Ctrl 1.00” value stood at 0.49 in test [2] (setting [12]) and 0.45 in [2] (setting [13]). Besides, the “MMP-1, Zymography, relative to Ctrl 1.00” value in test [3] (IL-1β-pre-treated SW1353) amounted to 0.77. In addition, the “MMP-2, Zymography, relative to Ctrl 1.00” value in test [4] (setting [14]) stood at 0.79. Besides, the “MMP-9, Zymography, relative to Ctrl 1.00” value in test [5] (setting [14]) is on record as 0.79.

On to `CC(C)(O)[C@@H]1CC[C@](C)([C@H]2[C@@H](O)C[C@@]3(C)[C@@H]4C[C@H](O)[C@H]5C(C)(C)[C@@H](O[C@@H]6OC[C@@H](O)[C@H](O)[C@H]6O[C@@H]6O[C@H](CO)[C@@H](O)[C@H](O)[C@H]6O)CC[C@@]56C[C@@]46CC[C@]23C)O1` [AS3, Astragaloside III], for which the “MMP-1, Western blot, relative to Ctrl 1.00” value in test [1] (setting [10]) is 0.39; in test [1] (setting [15]), 0.09. Further, the results for the “MMP-13, Western blot, relative to Ctrl 1.00” value in test [2] (setting [12]) and in test [6] (setting [16]) were 0.86 and 0.75, respectively. In addition, in test [3] (PMA-pre-treated SW1353), the “MMP-1, Zymography, relative to Ctrl 1.00” value is 0.89. In test [4] (PMA-pre-treated SW1353, 0.1 μM), the “MMP-2, Zymography, relative to Ctrl 1.00” value is 0.90. Also, in test [5] (PMA-pre-treated SW1353, 0.1 μM), the “MMP-9, Zymography, relative to Ctrl 1.00” value was found to be 0.87. Further, the “Type II Collagen, Western blot, relative to Ctrl 1.00” value in test [7] (setting [16]) was 1.03.

`CC(C)(O)[C@@H]1CC[C@](C)([C@H]2[C@@H](O)C[C@@]3(C)[C@@H]4C[C@H](O[C@@H]5O[C@H](CO)[C@@H](O)[C@H](O)[C@H]5O)[C@H]5C(C)(C)[C@@H](O[C@@H]6OC[C@@H](O)[C@H](O)[C@H]6O[C@@H]6O[C@H](CO)[C@@H](O)[C@H](O)[C@H]6O)CC[C@@]56C[C@@]46CC[C@]23C)O1` [AS6, Astragaloside VI]: the “MMP-1, Western blot, relative to Ctrl 1.00” value in [1] (setting [10]) is recorded as 0.63; in test [1] (setting [17]) it was 0.40; in test [8] (setting [16]), 0.97; in test [8] (setting [19]), 0.51. Also, the “MMP-13, Western blot, relative to Ctrl 1.00” value amounted to 0.93 in test [2] (setting [18]); 0.54 in test [6] (PMA-pre-treated HCH cell extract, 0.1 μM); 0.26 in test [6] (setting [19]). Also, the “Type II Collagen, Western blot, relative to Ctrl 1.00” value is 1.34 in test [7] (setting [16]) and 1.74 in [7] (setting [19]). For the same compound, the “proline uptake, Relative fold” value in test [9] amounted to 1.69 fold.

Turning to `C[C@@H]1C[C@H]2[C@@H]3CCC4=CC(=O)C=C[C@]4(C)[C@@]3(F)[C@@H](O)C[C@]2(C)[C@@]1(O)C(=O)CO` [Dex, Dexamethasone, reference compound], the “MMP-1, Western blot, relative to Ctrl 1.00” value in [1] (setting [10]) was 0.26; in [1] (setting [15]), 0.38; in test [1] (setting [11]) it was 0.38; in test [1] (setting [17]), 0.60; in test [8] (setting [16]), 0.28; in test [8] (setting [19]), 0.28. Moreover, the “MMP-13, Western blot, relative to Ctrl 1.00” value in test [2] (setting [12]) is 0.64; in [2] (setting [13]), 0.29; in [2] (PMA-pre-treated SW1353 cell extract) it was 0.48; in [2] (setting [18]), 0.46; in test [6] (setting [16]) it was 0.74; in [6] (setting [19]) it was 0.74. The figures for the “MMP-1, Zymography, relative to Ctrl 1.00” value in test [3] (IL-1β-pre-treated SW1353) and in test [3] (PMA-pre-treated SW1353) were 0.80 and 0.87, respectively. For the same compound, the “MMP-2, Zymography, relative to Ctrl 1.00” value was determined as 0.42 in test [4] (setting [14]) and 0.99 in [4] (PMA-pre-treated SW1353, 0.1 μM). In addition, the “MMP-9, Zymography, relative to Ctrl 1.00” value worked out at 0.58 in [5] (setting [14]) and 0.92 in [5] (PMA-pre-treated SW1353, 0.1 μM). For the same compound, the “Type II Collagen, Western blot, relative to Ctrl 1.00” value in test [7] (setting [16]) and in [7] (setting [19]) was 1.20 each time.

With Astragaloside I [AS1], the “MMP-1, Western blot, relative to Ctrl 1.00” value is on record as 0.66 in [1] (setting [10]), 0.86 in test [1] (setting [11]) and 0.48 in test [1] (setting [17]). The “MMP-13, Western blot, relative to Ctrl 1.00” value in test [2] (setting [12]) is listed as 0.37; in [2] (setting [18]), 1.15. For the same compound, the “MMP-1, Zymography, relative to Ctrl 1.00” value in test [3] (IL-1β-pre-treated SW1353) was determined as 0.86; in [3] (PMA-pre-treated SW1353), 0.85. The “MMP-2, Zymography, relative to Ctrl 1.00” value in test [4] (setting [14]) is on record as 0.76; in test [4] (PMA-pre-treated SW1353, 0.1 μM), 0.87. The “MMP-9, Zymography, relative to Ctrl 1.00” value was 0.79 in test [5] (setting [14]) and 1.23 in test [5] (PMA-pre-treated SW1353, 0.1 μM).
